In patent publication EP0003353A1, “A pharmaceutical composition for oral administration for treating hypertension” (Merck & Co., Inc., priority 1978, dated 1979):

System: spontaneously hypertensive (SH) rats
Assay: Mean arterial pressure of conscious SH rats, direct measurement by cannulation of the caudal artery
Format: in vivo
Conditions: for Mean arterial pressure at hours after treatment 0: 0 h; for Mean arterial pressure at hours after treatment 1/2: 1/2 h; for Mean arterial pressure at hours after treatment 1: 1 h; for Mean arterial pressure at hours after treatment 2: 2 h; for Mean arterial pressure at hours after treatment 4: 4 h; for Mean arterial pressure at hours after treatment 8: 8 h; for Mean arterial pressure at hours after treatment 12: 12 h; for Mean arterial pressure at hours after treatment 18: 18 h; for Mean arterial pressure at hours after treatment 24: 24 h
Method: The test procedure used is substantially as follows: • The test animals used were conscious, male, SH rats weighing about 290 to about 340 grams. The arterial blood pressure was measured by a direct technique involving cannulation of the caudal artery. Initial blood pressure reading was recorded. The decarboxylase inhibitor was then administered intraperitoneally (i.p.) and about 5 minutes later the L-a-methyl-p-tyrosine was given [(i.p. or orally (p.o.)]. The blood pressure was then continuously recorded at 1/2 hour intervals for 24 hours. The effect on blood pressure of the decarboxylase inhibitor and the L-a-methyl-p-tyrosine alone was also obtained by this test method. The results of representative tests are in the following table: […]

[1] = Test No. 2, Carbidopa 25 mg/kg i.p.
[2] = Test No. 13, Carbidopa 25 mg/kg i.p.
[3] = Test No. 3, α-methyl-p-tyrosine 5 mg/kg i.p.
[4] = Test No. 4, α-methyl-p-tyrosine 20 mg/kg i.p.
[5] = Test No. 5, α-methyl-p-tyrosine 40 mg/kg i.p.
[6] = Test No. 6, α-methyl-p-tyrosine 80 mg/kg i.p.
[7] = Test No. 14, α-Methyl-p-tyrosine 80 mg/kg p.o.

In the case of `C[C@@](Cc1ccc(O)c(O)c1)(NN)C(=O)O` [Carbidopa], the “Mean arterial pressure at hours after treatment 0” value [1] is reported as 167 mm Hg, the “Mean arterial pressure at hours after treatment 1/2” value [1] is reported as 166 mm Hg and the “Mean arterial pressure at hours after treatment 1” value [1] is reported as 164 mm Hg. The “Mean arterial pressure at hours after treatment 2” value [1] was 166 mm Hg, the “Mean arterial pressure at hours after treatment 4” value [1] was 158 mm Hg and the “Mean arterial pressure at hours after treatment 8” value [1] was 167 mm Hg. For the same molecule, the “Mean arterial pressure at hours after treatment 12” value [1] was 172 mm Hg, the “Mean arterial pressure at hours after treatment 18” value [1] was 172 mm Hg and the “Mean arterial pressure at hours after treatment 24” value [1] was 162 mm Hg. For the same molecule, the “Mean arterial pressure at hours after treatment 0” value [2] was 184 mm Hg, the “Mean arterial pressure at hours after treatment 1/2” value [2] was 184 mm Hg and the “Mean arterial pressure at hours after treatment 1” value [2] was 180 mm Hg. The “Mean arterial pressure at hours after treatment 2” value [2] was 178 mm Hg, the “Mean arterial pressure at hours after treatment 4” value [2] was 177 mm Hg and the “Mean arterial pressure at hours after treatment 8” value [2] was 184 mm Hg. For the same molecule, the “Mean arterial pressure at hours after treatment 12” value [2] was 183 mm Hg, the “Mean arterial pressure at hours after treatment 18” value [2] was 185 mm Hg and the “Mean arterial pressure at hours after treatment 24” value [2] was 182 mm Hg.
With `C[C@](N)(Cc1ccc(O)cc1)C(=O)O` [α-methyl-p-tyrosine, L-α-methyl-p-tyrosine] the “Mean arterial pressure at hours after treatment 0” value [3] was 165 mm Hg, the “Mean arterial pressure at hours after treatment 1/2” value [3] was 155 mm Hg and the “Mean arterial pressure at hours after treatment 1” value [3] was 162 mm Hg. For the same molecule, the “Mean arterial pressure at hours after treatment 2” value [3] was 160 mm Hg, the “Mean arterial pressure at hours after treatment 4” value [3] was 161 mm Hg and the “Mean arterial pressure at hours after treatment 8” value [3] was 167 mm Hg. The “Mean arterial pressure at hours after treatment 12” value [3] was 164 mm Hg, the “Mean arterial pressure at hours after treatment 18” value [3] was 168 mm Hg and the “Mean arterial pressure at hours after treatment 24” value [3] was 164 mm Hg. For the same molecule, the “Mean arterial pressure at hours after treatment 0” value [4] was 165 mm Hg, the “Mean arterial pressure at hours after treatment 1/2” value [4] was 152 mm Hg and the “Mean arterial pressure at hours after treatment 1” value [4] was 159 mm Hg. The “Mean arterial pressure at hours after treatment 2” value [4] was 157 mm Hg, the “Mean arterial pressure at hours after treatment 4” value [4] was 146 mm Hg and the “Mean arterial pressure at hours after treatment 8” value [4] was 156 mm Hg. The “Mean arterial pressure at hours after treatment 12” value [4] was 155 mm Hg, the “Mean arterial pressure at hours after treatment 18” value [4] was 161 mm Hg and the “Mean arterial pressure at hours after treatment 24” value [4] was 166 mm Hg. For the same molecule, the “Mean arterial pressure at hours after treatment 0” value [5] was 166 mm Hg, the “Mean arterial pressure at hours after treatment 1/2” value [5] was 148 mm Hg and the “Mean arterial pressure at hours after treatment 1” value [5] was 152 mm Hg. The “Mean arterial pressure at hours after treatment 2” value [5] was 145 mm Hg, the “Mean arterial pressure at hours after treatment 4” value [5] was 135 mm Hg and the “Mean arterial pressure at hours after treatment 8” value [5] was 140 mm Hg. For the same molecule, the “Mean arterial pressure at hours after treatment 12” value [5] was 134 mm Hg, the “Mean arterial pressure at hours after treatment 18” value [5] was 130 mm Hg and the “Mean arterial pressure at hours after treatment 24” value [5] was 135 mm Hg. The “Mean arterial pressure at hours after treatment 0” value [6] was 167 mm Hg, the “Mean arterial pressure at hours after treatment 1/2” value [6] was 166 mm Hg and the “Mean arterial pressure at hours after treatment 1” value [6] was 158 mm Hg. For the same molecule, the “Mean arterial pressure at hours after treatment 2” value [6] was 146 mm Hg, the “Mean arterial pressure at hours after treatment 4” value [6] was 138 mm Hg and the “Mean arterial pressure at hours after treatment 8” value [6] was 131 mm Hg. For the same molecule, the “Mean arterial pressure at hours after treatment 12” value [6] was 130 mm Hg, the “Mean arterial pressure at hours after treatment 18” value [6] was 136 mm Hg and the “Mean arterial pressure at hours after treatment 24” value [6] was 130 mm Hg. The “Mean arterial pressure at hours after treatment 0” value [7] was 169 mm Hg, the “Mean arterial pressure at hours after treatment 1/2” value [7] was 165 mm Hg and the “Mean arterial pressure at hours after treatment 1” value [7] was 166 mm Hg. For the same molecule, the “Mean arterial pressure at hours after treatment 2” value [7] was 161 mm Hg, the “Mean arterial pressure at hours after treatment 4” value [7] was 143 mm Hg and the “Mean arterial pressure at hours after treatment 8” value [7] was 147 mm Hg. The “Mean arterial pressure at hours after treatment 12” value [7] was 161 mm Hg, the “Mean arterial pressure at hours after treatment 18” value [7] was 165 mm Hg and the “Mean arterial pressure at hours after treatment 24” value [7] was 173 mm Hg.
